One data set is described as follows: Sensitivity to light. It counts as physicochemical. Particulars: effect of light.
Data set [1] is described as follows: Hot plate test (analgetic activity). In kind it is in vivo. Particulars: sc.
Data set [2] is described as follows: Tail Flick test (analgetic activity). It counts as in vivo. Particulars: read-out: Tail Flick ED50.

For `COc1ccc2c3c1O[C@H]1C(=NNc4ccccc4)C=C[C@@]4(O)[C@@H](C2)N(C)CC[C@]314` [14-OH-codeinone phenylhydrazone], the sensitivity to light entry in the data set “Sensitivity to light” was “sensitive to light, it turns to yellow due to the effect of light”.

Regarding `COc1ccc2c3c1O[C@H]1C(=NNc4ccccc4)CC[C@H]4[C@@H](C2)N(C)CC[C@]314` [Dihydrocodeinone phenylhydrazone], the 50% effective dose (ED50) (in general, the dose at which the effect has come halfway, by size or by number of responders) amounted to 2.4 mg/kg in data set [1] and 2.3 mg/kg in data set [2] (sc.).

As to `COc1ccc2c3c1O[C@H]1C(=NNC(N)=O)CC[C@H]4[C@@H](C2)N(C)CC[C@]314` [Dihydrocodeinone semicarbazone, Dihydrocodeinonesemicarbazone], the results for the ED50 in data set [1] and in data set [2] (sc.) were 0.38 mg/kg and 0.35 mg/kg, respectively.

For `COc1ccc2c3c1O[C@H]1C(=NNC(N)=S)CC[C@H]4[C@@H](C2)N(C)CC[C@]314` [Dihydrocodeinone thiosemicarbazone], the results for the 50% effective dose (ED50) in data set [1] and in data set [2] (sc.) were 1.7 mg/kg and 0.6 mg/kg, respectively.

As to `CN1CC[C@]23c4c5ccc(O)c4O[C@H]2C(=NNc2ccc([N+](=O)[O-])cc2[N+](=O)[O-])CC[C@H]3[C@H]1C5` [Dihydromorphinone dinitrophenylhydrazone, Dihydromorphinone-2,4-dinitrophenyl hydrazone], the 50% effective dose (ED50) came out at 0.27 mg/kg in data set [1] and 0.18 mg/kg in data set [2] (sc.).

`CN1CC[C@]23c4c5ccc(O)c4O[C@H]2C(=NNC(N)=O)CC[C@H]3[C@H]1C5` [Dihydromorphinone semicarbazone]: the figures for the ED50 in data set [1] and in data set [2] (sc.) were 0.085 mg/kg and 0.13 mg/kg, respectively.

In the case of `CN1CC[C@]23c4c5ccc(O)c4O[C@H]2[C@@H](O)C=C[C@H]3[C@H]1C5` [Morphine, reference compound], in data set [1], the “Hot plate test ED50” value turned out to be 3.6 mg/kg. In addition, in data set [2] (sc), the ED50 was 5 mg/kg.

Regarding `COc1ccc2c3c1O[C@H]1C(=NNc4ccccc4)CC[C@@]4(O)[C@@H](C2)N(C)CC[C@]314` [Oxycodone phenylhydrazone, 14-OH-dihydrocodeinone phenylhydrazone], the 50% effective dose (ED50) in data set [1] was found to be 0.8 mg/kg; in data set [2] (sc.), 1.2 mg/kg.

As for `COc1ccc2c3c1O[C@H]1C(=NNC(N)=O)CC[C@@]4(O)[C@@H](C2)N(C)CC[C@]314` [Oxycodone semicarbazone, 14-OH-dihydrocodeinonesemicarbazone], the median effective dose (ED50) in data set [1] was 0.58 mg/kg; in data set [2] (sc.), 0.45 mg/kg.

For the compound `CN1CC[C@]23c4c5ccc(O)c4O[C@H]2C(=NNc2ccc([N+](=O)[O-])cc2[N+](=O)[O-])CC[C@@]3(O)[C@H]1C5` [Oxymorphone dinitrophenylhydrazone, 14-OH-dihydromorphinone-2,4-dinitrophenyl hydrazone], the ED50 in data set [1] came to 0.37 mg/kg; in data set [2] (sc.), 0.27 mg/kg.

Take `CN1CC[C@]23c4c5ccc(O)c4O[C@H]2C(=NNC(N)=O)CC[C@@]3(O)[C@H]1C5` [Oxymorphone semicarbazone, 14-OH-dihydromorphinone semicarbazone]: the ED50 in data set [1] and in data set [2] (sc.) was 0.9 mg/kg each time.

For the origin of these results see patent US5232926A, “Morphinane-skeletoned hydrazone derivatives” (priority 1992, dated 1993).
